Data on one compound can be found in paper PMC6934184, “Selective DNA-PKcs inhibition extends the therapeutic index of localized radiotherapy and chemotherapy” (The Journal of Clinical Investigation, 2019).

This experiment concerns the target T1, TAOK1 (Homo sapiens, UniProt Q7L7X3).
T1 construct: purchased Thermo Fisher Scientific (Life Technologies) SelectScreen
Put plainly: SelectScreen LanthaScreen. Type of experiment: binding. The note with it: read-out: % displacement. In outline:
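SelectScreen broad panel; activity (Z'LYTE, Adapta) plus binding formats. ATP: Km app for CSF1R Z'LYTE; 10 for CAMK1 Adapta. Readout = % per kinase.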
On the technique in general: TR-FRET usually uses a lanthanide donor and a delayed reading to cut background.

T1 sequence (Q7L7X3 whole entry): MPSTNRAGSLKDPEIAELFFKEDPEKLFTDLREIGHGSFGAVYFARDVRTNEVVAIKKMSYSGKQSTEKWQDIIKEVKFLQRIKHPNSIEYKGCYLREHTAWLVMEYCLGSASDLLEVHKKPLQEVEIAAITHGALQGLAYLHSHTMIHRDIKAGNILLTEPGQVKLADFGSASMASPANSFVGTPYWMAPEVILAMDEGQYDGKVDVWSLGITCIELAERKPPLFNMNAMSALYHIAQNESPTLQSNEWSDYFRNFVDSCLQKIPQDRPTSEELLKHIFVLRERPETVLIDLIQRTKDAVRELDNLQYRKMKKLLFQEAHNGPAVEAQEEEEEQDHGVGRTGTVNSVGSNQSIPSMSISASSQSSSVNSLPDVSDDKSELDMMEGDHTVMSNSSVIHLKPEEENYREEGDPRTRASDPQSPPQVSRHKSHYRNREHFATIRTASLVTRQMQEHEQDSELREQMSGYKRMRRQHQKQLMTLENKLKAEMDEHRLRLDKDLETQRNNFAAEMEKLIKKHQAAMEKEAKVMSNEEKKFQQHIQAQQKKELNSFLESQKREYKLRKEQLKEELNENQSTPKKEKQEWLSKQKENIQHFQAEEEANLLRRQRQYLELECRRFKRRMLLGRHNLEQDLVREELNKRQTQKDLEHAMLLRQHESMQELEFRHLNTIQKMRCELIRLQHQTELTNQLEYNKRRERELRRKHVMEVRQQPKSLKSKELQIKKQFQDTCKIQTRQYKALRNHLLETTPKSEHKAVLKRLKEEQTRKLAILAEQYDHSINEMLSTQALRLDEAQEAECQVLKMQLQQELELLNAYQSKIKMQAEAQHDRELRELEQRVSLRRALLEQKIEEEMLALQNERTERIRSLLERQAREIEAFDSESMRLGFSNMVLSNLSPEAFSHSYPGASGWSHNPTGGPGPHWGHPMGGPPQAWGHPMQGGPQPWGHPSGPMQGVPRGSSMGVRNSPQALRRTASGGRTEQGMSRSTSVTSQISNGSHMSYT

For `CN(C(=O)CN1CCOCC1)c1ccc2sc3c(-c4cccc5c(=O)cc(N6CC7CCC(C6)O7)oc45)cccc3c2c1` [NU5455], the inhibition at 1 µM was 3.7%.
